Tests used:
[1] = potency of Amphotericin after foam drying and storage; type: physicochemical
Method: (7) Freeze-dried samples of Amphotericine B were rehydrated with 5 ml 40wt % sucrose per vial. Then the solutions were transferred into 50 ml sterilized glass vials for future preservation by drying. Before drying, the vials were covered with gray butyl slotted rubber stoppers. The vials were dried inside a vacuum chamber. The vials were sitting on the surface of a stainless steel shelf inside the chamber. The shelf temperature was controlled by circulating ethylene glycol/water antifreeze at a controlled temperature inside the shelf. Before the vacuum was applied the shelf temperature was decreased to 5° C. The hydrostatic pressure inside the chamber was decreased to 0.5 Torr. Under such a conditions the suspension boiled 30 min. The temperature of the shelf was then slowly (during 30 min) increased to 25° C. Visually, stable dry foams inside the vials under these experimental conditions were formed after 3 hours. After an additional 12 hours of drying at room temperature, the chamber was filled with the dry N2 gas and the rubber stoppers in a portion of the vials were pushed down. The vials were removed from the chamber and subsequently sealed with aluminum crimped seal. The samples were assayed right after drying and after 30 day of storage at 27.50 and 40° C. The results are shown in Table 1, together with the results obtained in the next experiment.
Another set of freeze-dried samples of Amphotericin B were rehydrated with 5 ml 40wt % sucrose per vial. The solutions were then transferred into sterilized glass vials for future preservation by drying similar to that described above with additional drying at 45° C. for additional 24 hours. After that, the chamber was filled again with the dry N2 gas, the rubber stoppers were pushed down and the vials were sealed. The samples were assayed right after drying and after 30 day of storage at 27.50 and 40° C.

[2] = Urokinase activity after foam drying and storage; type: physicochemical; details: 40wt % sucrose foam
Method: (6) Freezer-dried samples of Urokinase were rehydrated with 2 ml of 40wt % sucrose. The solutions were then transferred to 20 ml sterilized glass vials for future preservation by drying. Before drying, the vials were covered with gray slotted rubber stoppers. The vials were dried inside a vacuum chamber. The vials were sitting on the surface of a stainless steel shelf inside the chamber. The shelf temperature was controlled by circulating ethylene glycol/water antifreeze at a controlled temperature inside the shelf. Before the vacuum was applied the shelf temperature was decreased to 5° C. Then the hydrostatic pressure inside the chamber was decreased to 0.5 Torr. Under such a conditions the suspension boiled 30 min. […] Visually, stable dry foams inside the vials under these experimental conditions were formed during 3 hours. After an additional 12 hours of drying at room temperature, the temperature was increased to 45° C. for an additional 24 hours. After that the chamber was filled with the dry N2 gas, the rubber stoppers were pushed down and the vials were sealed with aluminum crimped seal.
The samples were assayed right after drying and after 30 days of storage at 40° C. After drying the Urokinase, activity was 93% of the initial activity. This decrease was associated with the loss of Urokinase during transformation from initial vials to the vials at which the Urokinase was dried. […]

Potency of Amphotericin (%) ([1]; Freeze-dried control)	Potency of Amphotericin (%) After 30 days of storage at 27.5° C. ([1]; Td = 25° C.) [%]	Potency of Amphotericin (%) After drying ([1]; Td = 25° C. (maximum temperature during drying)) [%]	Potency of Amphotericin (%) After 30 days of storage at 27.5° C. ([1]; Td = 45° C.) [%]	Potency of Amphotericin (%) After 30 days of storage at 40° C. ([1]; Td = 45° C.) [%]	Potency of Amphotericin (%) After drying ([1]; Td = 45° C.) [%]	Compound	Urokinase activity, % of the initial activity ([2]; after 30 days of storage at 40° C.) [%]	Urokinase activity, % of the initial activity ([2]; right after drying (max 45° C.)) [%]
126	114	108	102	104	103	C[C@@H]1[C@H](O)[C@@H](C)/C=C/C=C/C=C/C=C/C=C/C=C/C=C/[C@H](O[C@@H]2O[C@H](C)[C@@H](O)[C@H](N)[C@@H]2O)C[C@@H]2O[C@](O)(C[C@@H](O)C[C@@H](O)[C@H](O)CC[C@@H](O)C[C@@H](O)CC(=O)O[C@H]1C)C[C@H](O)[C@H]2C(=O)O [Amphotericin, Amphotericin B]		
						Urokinase	90	93

From patent US6509146B1, “Scalable long-term shelf preservation of sensitive biological solutions and suspensions” (Universal Preservation Technologies, Inc., priority 1996, dated 2003)
